Results reported in patent US6368788B1 (priority 1987, dated 2002).
Like-named read-outs stand apart in the source and are kept apart here. Marks after values point to notes of the source that are not given here.

Key:
Staphylococci = experiment: Antibiotic sensitivity (doubling-dilution, MIC-2000) of patient isolates before and after Stage 1; type: cell-based
Method: Antibiotics were administered according to established dosages and routes: i.e., penicillin, Ampicillin, oxacillin, tetracycline, erythromycin, garamycin; administered by intramuscular route. Antibiotics were chosen according to the antibiotic sensitivity of the Staphylococci isolated from the respective patients. (Antibiotic sensitivity was determined by testing staphylococcal isolates for their sensitivity in an antibiotic sensitivity doubling-dilution assay with the aid of the semi-automatic MIC-2000 system, Dynatech, USA).
Staphylococci were isolated from patients before and after treatment in Stage 1 with L-Glu-L-Trp in order to determine whether a favorable reversal of T-lymphocyte immunodeficiency might lead to a change in the antibiotic sensitivity. The isolated bacterial colonies following Stage I were typed as follows: namely, in 16 patients S. aureus, in 34, S. epidermidis, in 2 saprophytic Staphylococci. In all cases the same types of Staphylococci were isolated following treatment with L-Glu-L-Trp, but in 4 patients the predominant Staphylococci in the isolates changed from S. aureus to S. epidermidis (n=2), and saprophytic Staphylococci (n=2).
Antibiotic sensitivity of Staphylococci were determined by doubling-dilution methods with the aid of the semiautomatic MIC-2000 system (Dynatech, USA).

Pseudomonas aeruginosa = experiment: Survival after acute peritonitis with LD100 dose of Pseudomonas aeruginosa; type: in vivo, mice; conditions: 1 MED
C. albicans = type: in vivo, mice
E. coli = experiment: Survival after acute peritonitis with LD100 dose of E. coli; type: in vivo, mice; conditions: 1 MED
Staphylococcus aureus [1] = experiment: Survival after Staphylococcus aureus peritonitis, therapeutic treatment 1 hour after challenge; type: in vivo, mice; conditions: 1 MED
Method: EXAMPLES 32-34, above, test substance (i.e., L-Glu-L-Trp alone or in combination with antibiotic, or antibiotic alone) was injected sc, ip, po one hour after the bacterial challenge.

Staphylococcus aureus [2] = experiment: Survival after acute peritonitis with LD100 dose of antibiotic-resistant Staphylococcus aureus, prophylactic treatment; conditions: for Percentage Survivors: 1 MED
Rauscher MuLV = experiment: Anti-viral response to Rauscher MuLV; type: in vivo, mice
Description: Innate mechanisms of anti-viral immunity are important to survival of the host. The Rauscher murine leukemia virus (MuLV) is an example of a highly virulent animal retrovirus infection, first isolated and characterized by Dr. Rauscher from BALB/c mouse tissues in 1962. […] The virus employed in present GLP/blinded study was a murine leukemia complex known to induce progressive erythroleukemia in mice (i.e., Rauscher MuLV and replication-defective Rauscher spleen focus-forming virus). Disease manifested within about 6 days with death by about 50 days. Measurements of splenomegaly, blood reverse transcriptase, virus plaque assays (i.e., XC-plaque assay for viremia using SC-1 host cells) and serum anti-viral antibody titers were used to assess infection. Spleens achieved about 2.0 grams in weight within 21 days of infection, as compared with a normal spleen weights in an uninfected animals of about 0.1 gram.
Mice were inoculated with Rauscher MuLV complex (0.1 ml/7.8×10^4 PFU/mL) on day 0 and sacrificed on day 21. Test groups were comprised of 10 mice and control groups 6 mice. Control articles included saline and AZT (in drinking water at about 1.25 mg/mouse/day≈63 mg/kg/day/mouse). […] A non-infected group of mice was also sacrificed on day 21 to provide normal control values.
In EXAMPLE 38, SC-1 cells were originally derived from murine embryos, and XC cells (a rat tumor cell line induced by Rous Sarcoma Virus) were obtained from the ATCC in Rockville, Md.

[3] = system: Mycobacterium tuberculosis; design: species or system human; conditions: in vivo
YAC-1 target cells = experiment: NK cytotoxic activity of splenocytes on YAC-1 target cells; type: in vivo, C3H/HeJ mice
hepatitis B = experiment: Children with chronic persistent hepatitis B; type: in vivo, human
Method: In accord with a USSR Ministry of Health decision 125 children suffering with chronic persistent hepatitis B were entered into this trial over a two month period. Group 1 consisted of 35 children who received decaris immunomodulatory therapy; Group 2, 38 children who received thymalin treatments; Group 3, […] who received L-Glu-L-Trp; and, Group 4, 32 children who received only conventional symptom specific therapy.
L-Glu-L-Trp was administered at a dose of 2 μg/kg of body mass, im, daily for […], and a repeat (identical) course of treatment was administered 10 days after termination of the first course.

[4] = After Stage 1 Treatment (L-Glu-L-Trp only)
[5] = 25 mg/kg, days 0, 1, 2, 3, and 4
[6] = 50 mg/kg, days 0, 1, 2, 3, and 4
[7] = 100 mg/kg, days 0, 1, 2, 3, and 4
[8] = 200 mg/kg, days 0, 1, 2, 3, and 4
[9] = 20 mg/kg, days 0, 1, 2, 3, and 4 (Group 8)
[10] = 20 mg/kg, days −2, −1, 0, +1, and +2 (Group 10)

For `CN[C@@H]1[C@@H](O)[C@@H](O[C@@H]2[C@@H](O)[C@H](O[C@H]3OC(CN)=CC[C@H]3N)[C@@H](N)C[C@H]2N)OC[C@]1(C)O` [Cisomycin], the “Mean minimum inhibitory concentration (MIC)” value (Staphylococci; [4]) was 1.59 ± 0.58 µg/mL and the “Mean minimum inhibitory concentration (MIC)” value (Staphylococci; Before Treatment) was 3.46 ± 0.90 µg/mL.

For Gentamycin [reference compound], the “Mean minimum inhibitory concentration (MIC)” value (Staphylococci; [4]) was 1.32 ± 0.49 µg/mL, the “Mean minimum inhibitory concentration (MIC)” value (Staphylococci; Before Treatment) was 5.47 ± 0.92 µg/mL and the “Percentage Survivors” value (Pseudomonas aeruginosa; 24 hours after injection) was 27.8* %. The “Percentage Survivors” value (Pseudomonas aeruginosa; 48 hours after injection) was 27.8* % and the “Percentage Survivors” value (Pseudomonas aeruginosa; 96 hours after injection) was 27.8* %.

For `C[C@@H]1[C@H](O)[C@@H](C)/C=C/C=C/C=C/C=C/C=C/C=C/C=C/[C@H](O[C@@H]2O[C@H](C)[C@@H](O)[C@H](N)[C@@H]2O)C[C@@H]2O[C@](O)(C[C@@H](O)C[C@@H](O)[C@H](O)CC[C@@H](O)C[C@@H](O)CC(=O)O[C@H]1C)C[C@H](O)[C@H]2C(=O)O` [Amphotericin, reference compound], the “Germ Tube (%)” value (C. albicans; 0.063 mg/kg) was 20* %, the “Germ Tube (%)” value (C. albicans; 0.125 mg/kg) was 17* % and the “Germ Tube (%)” value (C. albicans; 0.25 mg/kg) was 14* %. For the same compound, the “Germ Tube (%)” value (C. albicans; 0.5 mg/kg) was 3* % and the “Germ Tube (%)” value (C. albicans; 1 mg/kg) was 1* %.

For `CC1(C)S[C@@H]2[C@H](NC(=O)[C@H](N)c3ccccc3)C(=O)N2[C@H]1C(=O)O` [Ampicillin, reference compound], the “Mean minimum inhibitory concentration (MIC)” value (Staphylococci; [4]) was 2.64 ± 0.60 µg/mL, the “Mean minimum inhibitory concentration (MIC)” value (Staphylococci; Before Treatment) was 8.10 ± 0.49 µg/mL and the “Percentage Survivors” value (E. coli; 24 hours after injection) was 33.3* %. The “Percentage Survivors” value (E. coli; 48 hours after injection) was 22.2* %, the “Percentage Survivors” value (E. coli; 72 hours after injection) was 22.2* % and the “Percentage Survivors” value (Staphylococcus aureus [1]; 24 hours) was 75.0* %. The “Percentage Survivors” value (Staphylococcus aureus [1]; 48 hours) was 44.4* %, the “Percentage Survivors” value (Staphylococcus aureus [1]; 72 hours) was 30.6* % and the “Percentage Survivors” value (Staphylococcus aureus [2]; 24 hours) was 75* %. For the same compound, the “Percentage Survivors” value (Staphylococcus aureus [2]; 48 hours) was 44.4* %, the “Percentage Survivors” value (Staphylococcus aureus [2]; 72 hours) was 30.6* % and the “Mean effective dose (MED) for 100% survival after one LD50 dose of methicillin-sensitive staphylococci” value (Staphylococcus aureus [2]; ip one hour after bacterial challenge) was 100 mg/kg.

For `Cc1onc(-c2ccccc2)c1C(=O)N[C@@H]1C(=O)N2[C@@H]1SC(C)(C)[C@@H]2C(=O)O` [Oxacillin], the “Mean minimum inhibitory concentration (MIC)” value (Staphylococci; [4]) was 1.56 ± 0.45 µg/mL and the “Mean minimum inhibitory concentration (MIC)” value (Staphylococci; Before Treatment) was 5.11 ± 0.63 µg/mL.

`Cc1nnc(SCC2=C(C(=O)O)N3C(=O)[C@@H](NC(=O)Cn4cnnn4)[C@H]3SC2)s1` [Cephamezine] was tested, and the “Mean minimum inhibitory concentration (MIC)” value (Staphylococci; [4]) was 1.33 ± 0.53 µg/mL and the “Mean minimum inhibitory concentration (MIC)” value (Staphylococci; Before Treatment) was 3.52 ± 0.94 µg/mL.

With `CC1(C)S[C@@H]2[C@H](NC(=O)Cc3ccccc3)C(=O)N2[C@H]1C(=O)O` [Penicillin] the “Mean minimum inhibitory concentration (MIC)” value (Staphylococci; [4]) was 2.52 ± 0.70 µg/mL and the “Mean minimum inhibitory concentration (MIC)” value (Staphylococci; Before Treatment) was 9.45 ± 0.28 µg/mL.

In the case of `Cc1cn([C@H]2C[C@H](N=[N+]=[N-])[C@@H](CO)O2)c(=O)[nH]c1=O` [AZT, reference compound], the “Reduction Splenomegaly (%)” value (Rauscher MuLV; [5]) was 46%, the “Spleen Weight (mean ± SD)” value (Rauscher MuLV; [5]) was 0.31 ± 0.05 and the “Reduction Splenomegaly (%)” value (Rauscher MuLV; [6]) was 33%. The “Spleen Weight (mean ± SD)” value (Rauscher MuLV; [6]) was 0.35 ± 0.17, the “Reduction Splenomegaly (%)” value (Rauscher MuLV; [7]) was 52% and the “Spleen Weight (mean ± SD)” value (Rauscher MuLV; [7]) was 0.29 ± 0.02. For the same compound, the “Reduction Splenomegaly (%)” value (Rauscher MuLV; [8]) was 46% and the “Spleen Weight (mean ± SD)” value (Rauscher MuLV; [8]) was 0.31 ± 0.09.

`c1ccc([C@H]2CN3CCSC3=N2)cc1` [decaris] was tested, and the “Considerable Improvement, % of patients” value [3] was 5%, the “Considerable Improvement, No. of patients” value [3] was 1 and the “Improvement, % of patients” value [3] was 82%. For the same compound, the “Improvement, No. of patients” value [3] was 18, the “No Change, % of patients” value [3] was 13% and the “No Change, No. of patients” value [3] was 3. The “Patients with closure of degeneration foci and cavities in the lungs” value [3] was 10, the “Patients with closure of foci and cavities” value [3] was 45% and the “Patients with “considerable improvement”” value [3] was 5%. For the same compound, the “Patients with “improvement”” value [3] was 18 and the Response rate [3] was 86%.

With `O=C(N[C@H](CO)[C@H](O)c1ccc([N+](=O)[O-])cc1)C(Cl)Cl` [Levomycetin] the “Mean minimum inhibitory concentration (MIC)” value (Staphylococci; [4]) was 4.58 ± 0.67 µg/mL and the “Mean minimum inhibitory concentration (MIC)” value (Staphylococci; Before Treatment) was 9.17 ± 0.36 µg/mL.

For `O=C(Cc1cccs1)N[C@@H]1C(=O)N2C(C(=O)[O-])=C(C[n+]3ccccc3)CS[C@H]12` [Ceporin], the “Mean minimum inhibitory concentration (MIC)” value (Staphylococci; [4]) was 1.82 ± 0.67 µg/mL and the “Mean minimum inhibitory concentration (MIC)” value (Staphylococci; Before Treatment) was 5.69 ± 0.86 µg/mL.

`CC(=O)OCC1=C(C(=O)O)N2C(=O)[C@@H](NC(=O)Cc3cccs3)[C@H]2SC1` [Keflin] was tested, and the “Mean minimum inhibitory concentration (MIC)” value (Staphylococci; [4]) was 1.86 ± 0.69 µg/mL and the “Mean minimum inhibitory concentration (MIC)” value (Staphylococci; Before Treatment) was 4.49 ± 0.93 µg/mL.

In the case of `[H]/N=C(/N)N[C@H]1[C@H](O)[C@@H](O)[C@H](O[C@@H]2O[C@@H](C)[C@](O)(C=O)[C@H]2O[C@@H]2O[C@@H](CO)[C@H](O)[C@@H](O)[C@@H]2NC)[C@@H](N/C(N)=N\[H])[C@@H]1O` [Streptomycin], the “Mean minimum inhibitory concentration (MIC)” value (Staphylococci; [4]) was 3.39 ± 0.66 µg/mL and the “Mean minimum inhibitory concentration (MIC)” value (Staphylococci; Before Treatment) was 6.71 ± 0.59 µg/mL.

For Poly(IC), the “Reduction Splenomegaly (%)” value (Rauscher MuLV; [9]) was 27%, the “Spleen Weight (mean ± SD)” value (Rauscher MuLV; [9]) was 0.37 ± 0.22 and the “Reduction Splenomegaly (%)” value (Rauscher MuLV; [10]) was −78%. For the same compound, the “Spleen Weight (mean ± SD)” value (Rauscher MuLV; [10]) was 0.72 ± 0.29.

In the case of `Cc1nnc(SCC2=C(C(=O)O)N3C(=O)[C@@H](NC(=O)Cn4cnnn4)[C@H]3SC2)s1` [Kefzol], the “Mean minimum inhibitory concentration (MIC)” value (Staphylococci; [4]) was 1.86 ± 0.93 µg/mL and the “Mean minimum inhibitory concentration (MIC)” value (Staphylococci; Before Treatment) was 4.61 ± 0.87 µg/mL.

`O=P1(N(CCCl)CCCl)NCCCO1` (centres unmarked) [cyclophosphamide, Cyclophosphamide, reference compound] was tested, and the “% Cytotoxicity (mean +/− S.D.)” value (YAC-1 target cells; dose 50 (μg/kg), reference treatment) was 6.4 ± 0.7%, the “Cytotoxicity Change (%)” value (YAC-1 target cells; dose 50, vs saline) was −25 ↓ % and the NK activity (YAC-1 target cells; reference treatment) was “decreased NK activity”.

For `c1ccc([C@H]2CN3CCSC3=N2)cc1` [Descaris], the “Percent of Subjects Disease Free at 6 Months After Treatment” value (shortened to “Percent of Subjects Disease Free”) (hepatitis B; Group 1, Pre-Treatment ALCT Activity None) was 100%, the “Percent of Subjects Disease Free” value (hepatitis B; Group 2, Pre-Treatment ALCT Activity Moderate) was 67% and the “Percent of Subjects Disease Free” value (hepatitis B; Group 3, Pre-Treatment ALCT Activity High) was 67%.

For `NC[C@H]1O[C@H](O[C@H]2[C@H](O)[C@@H](O[C@H]3O[C@H](CO)[C@@H](O)[C@H](N)[C@H]3O)[C@H](N)C[C@@H]2N)[C@H](O)[C@@H](O)[C@@H]1O` [Kanamycin], the “Mean minimum inhibitory concentration (MIC)” value (Staphylococci; [4]) was 2.09 ± 0.54 µg/mL and the “Mean minimum inhibitory concentration (MIC)” value (Staphylococci; Before Treatment) was 6.32 ± 0.58 µg/mL.
